Experimental data: ChEMBL document CHEMBL4483862, “Open-source discovery of chemical leads for next-generation chemoprotective antimalarials” (2018)
pIC50: −log10 of the molar value.

Test system: Plasmodium berghei
Experiment: Luciferase/luciferin-expressing antifolate-resistant parasites were used to infect a culture of HepG2 cells that were pre-incubated with compounds. Infected hepatocytes emit light due to the luciferase reaction. Assay results are presented as the percent inhibition of light emission compared to control. […]
Assay type: functional
Conditions: sporozoite; for IC90: read-out: LUCIFERASE INFECTION ASSAY - IC90

Compound | IC90 [µM] | other results
COc1ccc(Nc2nnc(SCc3cn4c(C)cccc4n3)s2)cc1 | 3.76 | pIC50 (HEPG2TOX_HILL_SLOPE 1.62, HEPG2TOX_R_SQUARED 0.963, PBLUC_HILL_SLOPE 37.7, PBLUC_R_SQUARED 0.0792, read-out: LUCIFERASE INFECTION ASSAY - IC50): 5.45
O=c1c2ccccc2cnn1-c1nc2ccccc2[nH]1 | > 10 | pIC50 (HEPG2TOX_HILL_SLOPE 1.61, HEPG2TOX_R_SQUARED 0.823, PBLUC_HILL_SLOPE 0.454, PBLUC_R_SQUARED 0.451, read-out: LUCIFERASE INFECTION ASSAY - IC50): 5.31
CC(C)c1ccc(NC(=O)c2csc(Cc3c(Cl)cccc3Cl)n2)cc1 | 8.08 | pIC50 (HEPG2TOX_HILL_SLOPE 1.62, HEPG2TOX_R_SQUARED 0.849, PBLUC_HILL_SLOPE 1.9, PBLUC_R_SQUARED 0.639, read-out: LUCIFERASE INFECTION ASSAY - IC50): 5.59
CC(C)(C)c1cc(C(=O)/C(C#N)=N/Nc2cccc(Cl)c2)no1 | 9.64 | pIC50 (HEPG2TOX_HILL_SLOPE 1.6, HEPG2TOX_R_SQUARED 0.978, PBLUC_HILL_SLOPE 25.6, PBLUC_R_SQUARED 0.306, read-out: LUCIFERASE INFECTION ASSAY - IC50): 5.05
OC1CCC(Nc2ccc3ncc(Br)n3n2)CC1 (configuration not stated) | > 10.6 | pIC50 (HEPG2TOX_HILL_SLOPE 1.63, HEPG2TOX_R_SQUARED 0.931, read-out: LUCIFERASE INFECTION ASSAY - IC50): < 4.97
CC(C)(C)c1ccc(OS(=O)(=O)c2ccc(-c3csnn3)s2)cc1 | > 8.67 | pIC50 (HEPG2TOX_HILL_SLOPE 1.63, HEPG2TOX_R_SQUARED 0.666, PBLUC_HILL_SLOPE 2.62, PBLUC_R_SQUARED 0.635, read-out: LUCIFERASE INFECTION ASSAY - IC50): 5.24
CC(C)n1ncc2cc(C(=O)Nc3nc(-c4cccnc4)cs3)cnc21 | > 10 | pIC50 (HEPG2TOX_HILL_SLOPE 1.63, HEPG2TOX_R_SQUARED 0.918, read-out: LUCIFERASE INFECTION ASSAY - IC50): < 5.00
Cc1cc(C(=O)C[n+]2ccc(N(C)C)cc2)c(C)n1Cc1ccccc1 | 4.24 | pIC50 (HEPG2TOX_HILL_SLOPE 1.63, HEPG2TOX_R_SQUARED 0.735, PBLUC_HILL_SLOPE 13.8, 4.61, PBLUC_R_SQUARED 0.572, 0.235, read-out: LUCIFERASE INFECTION ASSAY - IC50): 5.51
CC(=O)Nc1ccccc1OS(=O)(=O)c1ccc(N2CCCC2=O)cc1 | 1.38 | pIC50 (HEPG2TOX_HILL_SLOPE 1.61, HEPG2TOX_R_SQUARED 0.866, PBLUC_HILL_SLOPE 5.07, PBLUC_R_SQUARED 0.799, read-out: LUCIFERASE INFECTION ASSAY - IC50): 6.05
Cn1c(-c2cc3c(s2)CCC(C(C)(C)C)C3)n[nH]c1=S (configuration not stated) | 7.62 | pIC50 (HEPG2TOX_HILL_SLOPE 1.61, HEPG2TOX_R_SQUARED 0.989, PBLUC_HILL_SLOPE 2.28, PBLUC_R_SQUARED 0.71, read-out: LUCIFERASE INFECTION ASSAY - IC50): 5.54
Clc1ccccc1-c1nc2ccnc(NCc3ccccc3)c2[nH]1 | 4.04 | pIC50 (HEPG2TOX_HILL_SLOPE 1.64, HEPG2TOX_R_SQUARED 0.835, PBLUC_HILL_SLOPE 9.56, PBLUC_R_SQUARED 0.749, read-out: LUCIFERASE INFECTION ASSAY - IC50): 5.49
OC(/C(=N/Nc1ncnc2ccccc12)c1ccccc1)c1ccccc1 (configuration not stated) | 6.04 | pIC50 (HEPG2TOX_HILL_SLOPE 1.63, HEPG2TOX_R_SQUARED 0.814, PBLUC_HILL_SLOPE 71.4, PBLUC_R_SQUARED 0.509, read-out: LUCIFERASE INFECTION ASSAY - IC50): 5.23
O=C(NCCO)c1cccc(-c2ccc3ncc(-c4ccc5c(c4)OCO5)n3n2)c1 | 3.86 | pIC50 (HEPG2TOX_HILL_SLOPE 1.62, HEPG2TOX_R_SQUARED 0.792, PBLUC_HILL_SLOPE 12.2, PBLUC_R_SQUARED 0.362, read-out: LUCIFERASE INFECTION ASSAY - IC50): 5.49
CN(C)CCNC(=O)c1ccc(-c2cn3c(-c4ccc5ncccc5c4)cnc3cn2)cc1 | > 7.56 | pIC50 (HEPG2TOX_HILL_SLOPE 1.62, HEPG2TOX_R_SQUARED 0.706, PBLUC_HILL_SLOPE 13, PBLUC_R_SQUARED 0.311, read-out: LUCIFERASE INFECTION ASSAY - IC50): 5.19
O=[N+]([O-])c1ccc(C(O)CNc2ccccc2S(=O)(=O)C(F)(F)F)cc1 (configuration not stated) | 1.21 | pIC50 (HEPG2TOX_HILL_SLOPE 1.62, HEPG2TOX_R_SQUARED 0.763, PBLUC_HILL_SLOPE 5.41, PBLUC_R_SQUARED 0.533, read-out: LUCIFERASE INFECTION ASSAY - IC50): 6.09
O=C(c1[nH]c2ccccc2c1-c1ccccc1)N1CCOCC1 | 8.74 | pIC50 (HEPG2TOX_HILL_SLOPE 1.63, HEPG2TOX_R_SQUARED 0.942, PBLUC_HILL_SLOPE 2.32, PBLUC_R_SQUARED 0.78, read-out: LUCIFERASE INFECTION ASSAY - IC50): 5.47

Compound | IC90 [µM] | other results
CCc1ccc(-c2nnc(SC(C)C(=O)NC3CCCCC3)[nH]2)cc1 (configuration not stated) | > 10 | pIC50 (HEPG2TOX_HILL_SLOPE 1.62, HEPG2TOX_R_SQUARED 0.795, read-out: LUCIFERASE INFECTION ASSAY - IC50): < 5.00
Cc1c(-c2ccccc2)sc2[nH]c(CC(N)=O)nc(=O)c12 | 1.59 | pIC50 (HEPG2TOX_HILL_SLOPE 1.61, HEPG2TOX_R_SQUARED 0.893, PBLUC_HILL_SLOPE 16.8, PBLUC_R_SQUARED 0.567, read-out: LUCIFERASE INFECTION ASSAY - IC50): 5.86
O=C(CN1CC=C(c2ccccc2)CC1)Nc1ccnn1C1CCCC1 | > 10 | pIC50 (HEPG2TOX_HILL_SLOPE 1.62, HEPG2TOX_R_SQUARED 0.847, PBLUC_HILL_SLOPE 1.87, PBLUC_R_SQUARED 0.673, read-out: LUCIFERASE INFECTION ASSAY - IC50): 5.22
COc1cccc(-c2nc3ccnc(NCc4ccccc4)c3[nH]2)c1 | 7.99 | pIC50 (HEPG2TOX_HILL_SLOPE 1.62, HEPG2TOX_R_SQUARED 0.805, PBLUC_HILL_SLOPE 1.55, PBLUC_R_SQUARED 0.567, read-out: LUCIFERASE INFECTION ASSAY - IC50): 5.71
CNc1ccc2ncc(-c3ccc(OC)nc3)n2n1 | 12.8 | pIC50 (HEPG2TOX_HILL_SLOPE 1.61, HEPG2TOX_R_SQUARED 0.963, PBLUC_HILL_SLOPE 2.26, PBLUC_R_SQUARED 0.378, read-out: LUCIFERASE INFECTION ASSAY - IC50): 5.31
Cc1cc(C(=O)Nc2nc3cc(C(F)(F)F)ccc3n2Cc2ccco2)c2c(C)noc2n1 | 3.24 | pIC50 (HEPG2TOX_HILL_SLOPE 1.6, HEPG2TOX_R_SQUARED 0.983, PBLUC_HILL_SLOPE 3.8, PBLUC_R_SQUARED 0.87, read-out: LUCIFERASE INFECTION ASSAY - IC50): 5.74
CCN1C(=Cc2cc(C)[n+](CCCN3CCOCC3)c(C)c2)Sc2ccccc21 | 5.67 | pIC50 (HEPG2TOX_HILL_SLOPE 1.6, HEPG2TOX_R_SQUARED 0.978, PBLUC_HILL_SLOPE 2.92, PBLUC_R_SQUARED 0.557, read-out: LUCIFERASE INFECTION ASSAY - IC50): 5.57
Cc1cc(-c2cn3c(-c4ccc(CO)cc4)cnc3cn2)cc(C)c1O | 4.31 | pIC50 (HEPG2TOX_HILL_SLOPE 1.62, HEPG2TOX_R_SQUARED 0.965, PBLUC_HILL_SLOPE 8.31, PBLUC_R_SQUARED 0.637, read-out: LUCIFERASE INFECTION ASSAY - IC50): 5.48
COC(=O)C1=C(C)N(c2cccc(C(F)(F)F)c2)C(=S)NC1c1ccc(O)c(OC)c1 (configuration not stated) | 1.57 | pIC50 (HEPG2TOX_HILL_SLOPE 1.61, 1.73, HEPG2TOX_R_SQUARED 0.946, 0.571, PBLUC_HILL_SLOPE 8.66, 0.516, PBLUC_R_SQUARED 0.631, 0.614, read-out: LUCIFERASE INFECTION ASSAY - IC50): 6.04
N#Cc1ccnc(N2CCN(C(=O)c3cccc(-n4cccc4)c3)CC2)c1 | 2.2 | pIC50 (HEPG2TOX_HILL_SLOPE 1.62, HEPG2TOX_R_SQUARED 0.96, PBLUC_HILL_SLOPE 2.46, PBLUC_R_SQUARED 0.842, read-out: LUCIFERASE INFECTION ASSAY - IC50): 6.05
Cc1ccc2nc(NC(=O)c3ccc(F)cc3F)c(C(=O)NC3CCCC3)n2c1 | 2.97 | pIC50 (HEPG2TOX_HILL_SLOPE 1.63, HEPG2TOX_R_SQUARED 0.945, PBLUC_HILL_SLOPE 15.6, PBLUC_R_SQUARED 0.398, read-out: LUCIFERASE INFECTION ASSAY - IC50): 5.59
CCc1c(C)sc2nc(SCC(=O)c3cc(C)n(-c4ccc5c(c4)OCO5)c3C)n(CC)c(=O)c12 | > 10 | pIC50 (HEPG2TOX_HILL_SLOPE 1.63, HEPG2TOX_R_SQUARED 0.963, PBLUC_HILL_SLOPE 1.91, PBLUC_R_SQUARED 0.412, read-out: LUCIFERASE INFECTION ASSAY - IC50): 5.46
Oc1cccc(-c2cnc3cnc(-c4ccc(Cl)cc4Cl)cn23)c1 | 2.14 | pIC50 (HEPG2TOX_HILL_SLOPE 1.62, HEPG2TOX_R_SQUARED 0.949, PBLUC_HILL_SLOPE 1.81, PBLUC_R_SQUARED 0.693, read-out: LUCIFERASE INFECTION ASSAY - IC50): 6.20
O=C1/C(=N\O)c2ccccc2N1Cc1cc(C(F)(F)F)cc(C(F)(F)F)c1 | 2.62 | pIC50 (HEPG2TOX_HILL_SLOPE 1.63, HEPG2TOX_R_SQUARED 0.96, PBLUC_HILL_SLOPE 1.81, PBLUC_R_SQUARED 0.672, read-out: LUCIFERASE INFECTION ASSAY - IC50): 6.11
NS(=O)(=O)c1ccc(CNc2ccc3ncc(-c4ccc(Cl)cc4)n3n2)cc1 | 1.19 | pIC50 (HEPG2TOX_HILL_SLOPE 1.64, HEPG2TOX_R_SQUARED 0.894, PBLUC_HILL_SLOPE 9.33, PBLUC_R_SQUARED 0.776, read-out: LUCIFERASE INFECTION ASSAY - IC50): 6.03
